In patent US7786141B2 (Vertex Pharmaceuticals Incorporated, priority 2004, dated 2010):
pEC50: −log10 of the molar value. Like-named read-outs stand apart in the source and are kept apart here.

Legend:
M4 muscarinic receptor = target: T1, M4 muscarinic receptor (Homo sapiens, UniProt P08173); assay: Functional mobilization of intracellular calcium (FLIPR) in M4-CHO cells; assay type: cell-based
T1 construct: expressed in transfected cells; host or cells: CHO (M4-CHO)
T1 sequence (P08173 1-479): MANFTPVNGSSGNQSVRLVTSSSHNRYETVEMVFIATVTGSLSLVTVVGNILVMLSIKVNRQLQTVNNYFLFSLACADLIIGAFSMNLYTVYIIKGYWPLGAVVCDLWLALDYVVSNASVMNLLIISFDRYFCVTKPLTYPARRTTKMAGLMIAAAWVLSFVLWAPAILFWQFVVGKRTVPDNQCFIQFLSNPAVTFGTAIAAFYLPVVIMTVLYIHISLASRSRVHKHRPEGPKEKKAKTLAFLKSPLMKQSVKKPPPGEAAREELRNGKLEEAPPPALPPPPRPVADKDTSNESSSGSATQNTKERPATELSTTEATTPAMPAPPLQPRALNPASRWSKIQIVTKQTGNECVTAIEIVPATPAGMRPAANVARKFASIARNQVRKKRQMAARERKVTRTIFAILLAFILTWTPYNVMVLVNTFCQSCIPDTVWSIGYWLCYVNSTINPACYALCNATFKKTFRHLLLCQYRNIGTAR
Outline: (§1)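 Two modes: direct compound addition for agonism, or 15 min compound pre-incubation (or co-application) before carbachol at EC80 for inhibition. Calcium signal from Fluo-3 AM or Calcium 3 dye in CHO cells, 1 mM probenecid, pH 7.4, read 60 sec at 488/540 nm; DMSO 0.5% final.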

M1 muscarinic receptor = target: T2, M1 muscarinic receptor (Homo sapiens, UniProt P11229); assay: Functional mobilization of intracellular calcium (FLIPR) in M1-CHO cells; assay type: cell-based
T2 construct: expressed in transfected cells; host or cells: CHO (M1-CHO)
T2 sequence (P11229 1-460): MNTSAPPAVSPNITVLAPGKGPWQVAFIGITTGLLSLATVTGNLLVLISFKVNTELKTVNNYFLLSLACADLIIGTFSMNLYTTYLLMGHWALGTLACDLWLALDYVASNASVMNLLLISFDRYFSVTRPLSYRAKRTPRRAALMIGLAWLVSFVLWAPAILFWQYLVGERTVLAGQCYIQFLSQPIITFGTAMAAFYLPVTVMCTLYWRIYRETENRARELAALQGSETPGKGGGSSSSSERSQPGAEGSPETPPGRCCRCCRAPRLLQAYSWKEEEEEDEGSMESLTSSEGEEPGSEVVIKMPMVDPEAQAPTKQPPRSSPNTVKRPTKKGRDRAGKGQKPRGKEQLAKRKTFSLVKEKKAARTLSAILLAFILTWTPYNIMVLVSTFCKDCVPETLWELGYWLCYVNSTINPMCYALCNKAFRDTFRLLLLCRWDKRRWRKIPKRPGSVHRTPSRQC
Outline: as §1

[1] = M4 receptor, calcium mobilization
[2] = M4 receptor, calcium mobilization, read-out: M4 Efficacy
[3] = M1 receptor, calcium mobilization
[4] = M1 receptor, calcium mobilization, read-out: M1 Efficacy
[5] = Table 4, 100% efficacy is the maximum response obtained with the Carbachol control
[6] = Table 4, M4 receptor, calcium mobilization (FLIPR)
[7] = Table 4, M1 receptor, calcium mobilization (FLIPR)
[8] = Table 4, modulating M4 receptor
[9] = Table 4, modulating M1 receptor

| SMILES | M4 Activity (M4 muscarinic receptor; [1]) | Emax (M4 muscarinic receptor; [2]) | M1 Activity (M1 muscarinic receptor; [3]) | Emax (M1 muscarinic receptor; [4]) | Emax (M4 muscarinic receptor; [5]) | Emax (M1 muscarinic receptor; [5]) | M4 Activity (M4 muscarinic receptor; [8]) | M1 Activity (M1 muscarinic receptor; [9]) | other results |
| --- | --- | --- | --- | --- | --- | --- | --- | --- | --- |
| CCOC(=O)N1CCC(CN2CCC3(CC2)C(=O)N(C)c2ccccc23)CC1 [compound 327] | x (activity was measured to be greater than 1.0 μM) | < 65% | x (activity was measured to be greater than 1.0 μM) | < 65% | – | – | – | – | – |
| CCOC(=O)C1CC1CN1CCC2(CC1)C[C@H](NC(C)=O)c1ccccc12 (stereo partly drawn) [compound 926] | – | – | – | – | < 25% | 25 to 100% | – | – | M4 Activity (M4 muscarinic receptor; [6]): x (activity was measured to be greater than 5.0 μM); M1 Activity (M1 muscarinic receptor; [7]): x (activity was measured to be greater than 5.0 μM) |
| O=C(N[C@H]1CC2(CCN(C[C@@H]3C[C@H]4C=C[C@H]3C4)CC2)c2ccccc21)c1ccoc1 [compound 519] | – | – | – | – | < 25% | 25 to 100% | x (activity was measured to be greater than 5.0 μM) | xxx (activity was measured to be less than 2.0 μM) | – |
| O=C1CC2(CCN(C3CCCCCC3)CC2)c2ccc(Cl)cc21 [compound 609] | – | – | – | – | 25 to 100% | 25 to 100% | xxx (activity was measured to be less than 2.0 μM) | xx (activity was measured to be between 2.0 μM and 5.0 μM) | – |
| C=Cc1ccc2c(c1)C1(CCN(C3CCN(C(=O)OCC)CC3)CC1)CN2C(C)=O [compound 11] | x (activity was measured to be greater than 1.0 μM) | < 65% | x (activity was measured to be greater than 1.0 μM) | < 65% | – | – | – | – | – |
| CC(=O)N[C@H]1CC2(CCN(C3C[C@H]4CC[C@@H]3C4)CC2)c2ccccc21 (stereo partly drawn) [compound 158] | x (activity was measured to be greater than 1.0 μM) | > 85% | xxx (activity was measured to be less than 0.1 μM) | > 85% | – | – | – | – | – |
| CCOC(=O)N1CCC(N2CCC3(CC2)CN(c2ccsc2)c2ccc(F)cc23)CC1 [compound 891] | – | – | – | – | 25 to 100% | 25 to 100% | – | – | M4 Activity (M4 muscarinic receptor; [6]): xxx (activity was measured to be less than 2.0 μM); M1 Activity (M1 muscarinic receptor; [7]): xxx (activity was measured to be less than 2.0 μM) |
| CCOC(=O)N1C2CCC1CC(N1CCC3(CC1)CN(C(C)=O)c1ccc(OC)cc13)C2 (stereo not drawn) [compound 754] | – | – | – | – | 25 to 100% | 25 to 100% | xxx (activity was measured to be less than 2.0 μM) | xxx (activity was measured to be less than 2.0 μM) | – |
| CC(=O)NC1CCC2(CCN(CCC3CCN(S(C)(=O)=O)CC3)CC2)c2ccccc21 (stereo not drawn) [compound 969] | – | – | – | – | < 25% | 25 to 100% | – | – | M4 Activity (M4 muscarinic receptor; [6]): x (activity was measured to be greater than 5.0 μM); M1 Activity (M1 muscarinic receptor; [7]): xxx (activity was measured to be less than 2.0 μM) |
| Clc1ccc2c(c1)C1(CCO2)CCN(C2CCOCC2)CC1 [compound 178] | x (activity was measured to be greater than 1.0 μM) | 65 to 85% | xx (activity was measured to be between 0.1 μM and 1.0 μM) | > 85% | – | – | – | – | – |
| CN(C)C(=O)CN1CC2(CCN(C[C@H]3C[C@H]4C=CC3C4)CC2)c2cc(F)ccc21 [compound 734] | – | – | – | – | 25 to 100% | 25 to 100% | xxx (activity was measured to be less than 2.0 μM) | xxx (activity was measured to be less than 2.0 μM) | – |
| CC(=O)N1CC2(CCN(CC3CCN(C(=O)O[C@@H]4CCOC4)CC3)CC2)c2cc(F)ccc21 [compound 14] | xxx (activity was measured to be less than 0.1 μM) | > 85% | xxx (activity was measured to be less than 0.1 μM) | 65 to 85% | – | – | – | – | – |
| COCCN1CC2(CCN(C3CCN(C(=O)OCCF)CC3)CC2)c2cc(F)ccc21 [compound 460] | – | – | – | – | 25 to 100% | 25 to 100% | xxx (activity was measured to be less than 2.0 μM) | xxx (activity was measured to be less than 2.0 μM) | – |
| CN(C)C(=O)N1CC2(CCN(C3CCN(c4cccnc4)CC3)CC2)c2cc(F)ccc21 [compound 535] | – | – | – | – | 25 to 100% | 25 to 100% | xxx (activity was measured to be less than 2.0 μM) | xxx (activity was measured to be less than 2.0 μM) | – |
| CC(=O)N1CC2(CCN(CC3CCN(C(=O)OC4CCC4)CC3)CC2)c2cc(C)ccc21 [compound 757] | – | – | – | – | < 25% | < 25% | x (activity was measured to be greater than 5.0 μM) | x (activity was measured to be greater than 5.0 μM) | – |
| CCOC(=O)N1CCC(N2CCC3(CC2)CN(CCOC)c2ccc(F)cc23)CC1 [compound 391] | – | – | – | – | – | – | – | – | pEC50 (M4 muscarinic receptor; M4-CHO cells, calcium mobilization (FLIPR)): < 6.00; Emax (M4 muscarinic receptor; M4-CHO cells, calcium mobilization (FLIPR), read-out: M4 Efficacy): < 65%; pEC50 (M1 muscarinic receptor; M1-CHO cells, calcium mobilization (FLIPR)): 6.00 to 7.00; Emax (M1 muscarinic receptor; M1-CHO cells, calcium mobilization (FLIPR), read-out: M1 Efficacy): < 65% |
| COCCOC(=O)N1CC2(CCN(C3CC4CCC(C3)N4C(=O)O[C@@H]3CCOC3)CC2)c2cc(F)ccc21 (stereo partly drawn) [compound 304] | x (activity was measured to be greater than 1.0 μM) | < 65% | xxx (activity was measured to be less than 0.1 μM) | 65 to 85% | – | – | – | – | – |
| CCOC(=O)N1CCC(N2CCC3(CC2)CN(C(C)=O)c2ccc(-c4ccc(C#N)cc4)cc23)CC1 [compound 253] | x (activity was measured to be greater than 1.0 μM) | 65 to 85% | xx (activity was measured to be between 0.1 μM and 1.0 μM) | 65 to 85% | – | – | – | – | – |
| Cc1ccc2c(c1)C(=O)CC21CCN(C2CCCCCC2)CC1 [compound 863] | – | – | – | – | 25 to 100% | 25 to 100% | – | – | M4 Activity (M4 muscarinic receptor; [6]): xx (activity was measured to be between 2.0 μM and 5.0 μM); M1 Activity (M1 muscarinic receptor; [7]): x (activity was measured to be greater than 5.0 μM) |
| CCOC(=O)N1CCC(CN2CCC3(CC2)CN(C(C)=O)c2ccc(S(C)(=O)=O)cc23)CC1 [compound 948] | – | – | – | – | < 25% | < 25% | – | – | M4 Activity (M4 muscarinic receptor; [6]): x (activity was measured to be greater than 5.0 μM); M1 Activity (M1 muscarinic receptor; [7]): x (activity was measured to be greater than 5.0 μM) |
| CCOC(=O)N1C2CCC1CC(N1CCC3(CC1)CN(C(C)=O)c1ccc(OC(F)(F)F)cc13)C2 (stereo not drawn) [compound 466] | – | – | – | – | 25 to 100% | 25 to 100% | xxx (activity was measured to be less than 2.0 μM) | xxx (activity was measured to be less than 2.0 μM) | – |
| CC(=O)N[C@H]1CCC2(CCN(CC3CC4C=CC3C4)CC2)c2ccccc21 (stereo partly drawn) [compound 740] | – | – | – | – | 25 to 100% | 25 to 100% | xxx (activity was measured to be less than 2.0 μM) | xxx (activity was measured to be less than 2.0 μM) | – |
| CC(=O)N[C@H]1CC2(CCN(CC(=O)N3CCC(=O)N3)CC2)c2ccccc21 [compound 780] | – | – | – | – | < 25% | < 25% | x (activity was measured to be greater than 5.0 μM) | x (activity was measured to be greater than 5.0 μM) | – |
| CCOC(=O)N1CCC(N2CCC3(CC2)CN(C(=O)Nc2ccccc2)c2ccccc23)CC1 [compound 433] | – | – | – | – | 25 to 100% | > 100% | xxx (activity was measured to be less than 2.0 μM) | xxx (activity was measured to be less than 2.0 μM) | – |
| Clc1ccc2c(c1)C1(CCO2)CCN([C@@H]2C[C@@H]3CC[C@H]2C3)CC1 [compound 369] | xx (activity was measured to be between 0.1 μM and 1.0 μM) | > 85% | xxx (activity was measured to be less than 0.1 μM) | > 85% | – | – | – | – | – |
| CCOC(=O)N1C2CCC1CC(N1CCC3(CCc4ccccc43)CC1)C2 (stereo not drawn) [compound 365] | x (activity was measured to be greater than 1.0 μM) | < 65% | xxx (activity was measured to be less than 0.1 μM) | 65 to 85% | – | – | – | – | – |
| COC(=O)N1CC[C@@H](CN2CCC3(CC2)CN(C(C)=O)c2ccccc23)C1 [compound 923] | – | – | – | – | 25 to 100% | 25 to 100% | – | – | M4 Activity (M4 muscarinic receptor; [6]): xxx (activity was measured to be less than 2.0 μM); M1 Activity (M1 muscarinic receptor; [7]): xx (activity was measured to be between 2.0 μM and 5.0 μM) |
